Measurements as given in patent publication US12551564B2, “IRAK degraders and uses thereof” (Kymera Therapeutics, Inc., priority 2019, dated 2026).
Where two headings read alike, the source gives them in different places.

Tests used:
IRAK4 = biological target: T1, IRAK4 (Homo sapiens, UniProt Q9NWZ3); experiment: IRAK4 degradation in OCI-LY10 (MSD); assay type: cell-based; settings: OCI-LY10 cells
T1 construct: endogenous in cells; host or cells: OCI-LY10
T1 sequence (Q9NWZ3 1-460): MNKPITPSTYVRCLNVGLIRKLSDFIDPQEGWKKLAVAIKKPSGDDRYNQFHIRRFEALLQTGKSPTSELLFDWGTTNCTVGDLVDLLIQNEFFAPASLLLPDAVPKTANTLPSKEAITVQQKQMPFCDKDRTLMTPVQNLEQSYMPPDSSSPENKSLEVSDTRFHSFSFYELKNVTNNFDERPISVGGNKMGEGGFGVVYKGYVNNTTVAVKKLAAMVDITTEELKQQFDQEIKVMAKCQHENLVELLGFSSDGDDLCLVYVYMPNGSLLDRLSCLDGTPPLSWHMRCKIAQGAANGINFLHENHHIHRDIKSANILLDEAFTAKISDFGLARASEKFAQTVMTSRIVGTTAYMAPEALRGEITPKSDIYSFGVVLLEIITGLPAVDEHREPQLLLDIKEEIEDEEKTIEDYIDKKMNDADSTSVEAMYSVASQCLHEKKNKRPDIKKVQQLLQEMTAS
Procedure: IRAK4 degradation in OCI-LY10 (MSD)
Degradation of IRAK4 in OCI-LY10 was quantitatively measured using Meso Scale Discovery technology. OCI-LY10 cells were seeded in 96-well plates (Corning 3799) with a density of 300,000 cells per well in 100 μL fresh media. Compounds were then added to the assay plates with a final top concentration of 1 to 10 μM in a 1:3 dilution series with total of 8 doses. The assay plates were then incubated for 4 to 24 hours at 37° C. under 5% CO2. The assay plates were then centrifuged for 5 minutes and the cell pellets were treated with 100 μL/well RIPA lysis buffer (Boston BioProducts BP-115D) with proteinase inhibitors. To prepare MSD assay plates (Meso Scale Discovery Catalog number L15XA-3), the plates were coated with 2 μg/mL capture antibody (mouse Anti-IRAK4 antibody [2H9], ab119942) in PBS, at 40 μL/well. The plates were then incubated overnight at 4° C., washed 3 times with 150 μL/well TBST buffer (Cell Signaling Technology, Catalog number 9997S) and blocked with 150 μL well blocking buffer (Meso Scale Discovery Catalog number R93BA-4). Cell lysates were then added to MSD assay plates and the plates were incubated at room temperature for 1 hour. The plates were then washed 3 times with 150 μL/well TBST buffer and 25 μL/well primary detection antibody (rabbit Anti-IRAK4 antibody [Y279], from Abcam. Catalog number ab32511, 1 μg/mL). The assay plates were then incubated at room temperature for 1 hour, washed 3 times with 150 TBST buffer and 25A/well secondary detection antibody, SULFO-TAG anti-rabbit antibody were added (anti rabbit antibody from Meso Scale Discovery, Catalog number R32AB-1, 1 μg/mL). The assay plates were then incubated at room temperature for 1 hour, washed 3 times with 150 TBST buffer, and 150 MSD reading buffer (Meso Scale Discovery catalog number R92TC-2) was added. The plates were then analyzed by a MSD reader (Meso Scale Discovery, Model Quick Plex SQ 120). The data was then analyzed by software Prism 7.0 from GraphPad and the dose-depended IRAK4 degradation were fit using a three-parameter logistic equation to calculate DC50.

OCI-LY10 = experiment: CTG Cell Viability Assay - OCI-LY10 (CellTiter-Glo); assay type: cell-based; settings: Homo sapiens, 96 h; OCI-LY10 cells, 4 days incubation; read-out: CTG Cell Viability Assay-OCI-LY100: Average external-IC50
Procedure: Cell viability assay with OCI-LY10 and TMD8
Compound-mediated viability effect on OCI-LY10 or TMD8 were quantitatively determined using the CellTiter-Glo® Luminescent Cell Viability Assay kit from Promega (Catalog number G7570) following manufacturer's recommended procedures. Briefly, OCI-LY10 or TMD8 cells is seeded into 384 well plates (Grenier Bio-One, Catalog number 781080) with a density of 10,000 cells per well. Compounds were then added to the assay plate with final top concentration of 10 μM and 1:3 dilution series with total of 9 doses. The final DMSO concentration was normalized to 0.2%. The assay plates were incubated at 37° C. for 4 days under 5% CO2. Then the assay plate was equilibrated at room temperature for 10 minutes. To determine cell viability, 30 μL CellTiter Glo reagent was added to each well and the assay plate was centrifuged at 1000 rpm for 30 second, incubated at room temperature for 10 min, and analyzed by detecting the luminescence using a multimode plate reader (EnVision 2105, PerkinElmer). The data was then analyzed by software Prism 7.0 from GraphPad and the dose response curves were fit using a three-parameter logistic equation to calculate IC50.

[1] = 4 hrs incubation, read-out: IRAK4 MSD degradation in OCI-LY10 at 4 hrs: Average external-Abs DC50
[2] = 24 hrs incubation, read-out: IRAK4 MSD degradation in OCI-LY10 at 24 hrs: Average external-Abs DC50

Compound	DC50 (IRAK4; [1])	DC50 (IRAK4; [2])	IC50 (OCI-LY10)
CN(CCCNC(=O)COc1ccc2c(c1)CCCN2C(=O)CCl)C[C@H]1CC[C@H](n2cc(NC(=O)c3coc(-c4ccnc(NCC5CC5)c4)n3)c(C(F)F)n2)CC1 [I-1, N-(1-((1r,4r)-4-(((3-(2-((1-(2-chloroacetyl)-1,2,3,4-tetrahydroquinolin-6-yl)oxy)acetamido)propyl)(methyl)amino)methyl)cyclohexyl)-3-(difluoromethyl)-1H-pyrazol-4-yl)-2-(2-((cyclopropylmethyl)amino)pyridin-4-yl)oxazole-4-carboxamide]	> 1000 nM	> 1000 nM	> 1000 nM
CN(CCCCCNC(=O)COc1ccc2c(c1)CCCN2C(=O)CCl)C[C@H]1CC[C@H](n2cc(NC(=O)c3coc(-c4ccnc(NCC5CC5)c4)n3)c(C(F)F)n2)CC1 [I-2]	> 1000 nM	> 1000 nM	> 1000 nM
CN(CCCCCCCNC(=O)COc1ccc2c(c1)CCCN2C(=O)CCl)C[C@H]1CC[C@H](n2cc(NC(=O)c3coc(-c4ccnc(NCC5CC5)c4)n3)c(C(F)F)n2)CC1 [I-3]	> 1000 nM	> 1000 nM	> 1000 nM
CN(CCCCCCCCCNC(=O)COc1ccc2c(c1)CCCN2C(=O)CCl)C[C@H]1CC[C@H](n2cc(NC(=O)c3coc(-c4ccnc(NCC5CC5)c4)n3)c(C(F)F)n2)CC1 [I-4]	–	> 1000 nM	> 1000 nM
CN(CCCCOc1ccc(Oc2ccc(N(Cc3ccccc3)C(=O)CCl)cc2)cc1)C[C@H]1CC[C@H](n2cc(NC(=O)c3coc(-c4ccnc(NCC5CC5)c4)n3)c(C(F)F)n2)CC1 [I-5]	> 1000 nM	> 1000 nM	> 1000 nM
CN(CCCCCCOc1ccc(Oc2ccc(N(Cc3ccccc3)C(=O)CCl)cc2)cc1)C[C@H]1CC[C@H](n2cc(NC(=O)c3coc(-c4ccnc(NCC5CC5)c4)n3)c(C(F)F)n2)CC1 [I-6]	> 1000 nM	> 1000 nM	500 to 1000 nM
CN(CCCCCCCCOc1ccc(Oc2ccc(N(Cc3ccccc3)C(=O)CCl)cc2)cc1)C[C@H]1CC[C@H](n2cc(NC(=O)c3coc(-c4ccnc(NCC5CC5)c4)n3)c(C(F)F)n2)CC1 [I-7]	> 1000 nM	100 to 1000 nM	500 to 1000 nM

Next, values leading:

DC50 (IRAK4; [1])	DC50 (IRAK4; [2])	IC50 (OCI-LY10)	Compound
> 1000 nM	100 to 1000 nM	500 to 1000 nM	CN(CCCCCCCCCCOc1ccc(Oc2ccc(N(Cc3ccccc3)C(=O)CCl)cc2)cc1)C[C@H]1CC[C@H](n2cc(NC(=O)c3coc(-c4ccnc(NCC5CC5)c4)n3)c(C(F)F)n2)CC1 [I-8, N-(1-((1r,4r)-4-(((10-(4-(4-(N-benzyl-2-chloroacetamido)phenoxy)phenoxy)decyl)(methyl)amino)methyl)cyclohexyl)-3-(difluoromethyl)-1H-pyrazol-4-yl)-2-(2-((cyclopropylmethyl)amino)pyridin-4-yl)oxazole-4-carboxamide]
> 1000 nM	> 1000 nM	> 1000 nM	COCC(=O)N1CCCc2cc(OCC(=O)NCCCCCN(C)C[C@H]3CC[C@H](n4cc(NC(=O)c5coc(-c6ccnc(NCC7CC7)c6)n5)c(C(F)F)n4)CC3)ccc21 [I-9, 2-[2-(cyclopropylmethylamino)-4-pyridyl]-N-[3-(difluoromethyl)-1-[4-[[5-[[2-[[1-(2-methoxyacetyl)-3,4-dihydro-2H-quinolin-6-yl]oxy]acetyl]amino]pentyl-methyl-amino]methyl]cyclohexyl]pyrazol-4-yl]oxazole-4-carboxamide]
–	> 1000 nM	500 to 1000 nM	COCC(=O)N(Cc1ccccc1)c1ccc(Oc2ccc(OCCCCN(C)C[C@H]3CC[C@H](n4cc(NC(=O)c5coc(-c6ccnc(NCC7CC7)c6)n5)c(C(F)F)n4)CC3)cc2)cc1 [I-11]
–	> 1000 nM	500 to 1000 nM	CN(CCCCOc1ccc(Oc2ccc(N(Cc3ccccc3)C(=O)CCl)cc2)cc1)C[C@H]1CC[C@H](n2cc(N(C)C(=O)c3coc(-c4ccnc(NCC5CC5)c4)n3)c(C(F)F)n2)CC1 [I-12]
